# Test results taken from publication PMC5666424, “Marine-Derived 2-Aminoimidazolone Alkaloids. Leucettamine B-Related Polyandrocarpamines Inhibit Mammalian and Protozoan DYRK & CLK Kinases” (Marine Drugs, 2017).
# Assays:
# Assay in all cases: KinomeScan
# Format in all cases: binding
# Details in all cases: 1 μM
# [1] = molecular target: T1, AAK1 (Homo sapiens, UniProt Q2M2I8)
# T1 construct: purchased DiscoverX (KINOMEscan)
# Description: (§1) Assays were performed essentially as described previously. For most assays, kinase-tagged T7 phage strains were grown in parallel in 24-well blocks in an E. coli host derived from the BL21 strain. E. coli were grown to log-phase and infected with T7 phage from a frozen stock (multiplicity of infection ~0.1) and incubated with shaking at 32 °C until lysis (~90 min). The lysates were centrifuged (6000× g) and filtered (0.2 μm) to remove cell debris. The remaining kinases were produced in HEK-293 cells and subsequently tagged with DNA for qPCR detection. […] The liganded beads were blocked with excess biotin and washed with blocking buffer (SeaBlock (Pierce, ThermoFisher Scientific, Illkirch, France), 1% BSA, 0.05% Tween 20, 1 mM DTT) to remove unbound ligand and to reduce non-specific phage binding. […] An 11-point threefold serial dilution of each test compound was prepared in 100% DMSO at 100× final test concentration which and subsequently diluted to 1× in the assay. All reactions were performed in polystyrene 96-well plates in a final volume of 0.135 mL. […] The kinase concentration in the eluates was measured by qPCR.
# [2] = molecular target: T2, AKT3 (Homo sapiens, UniProt Q9Y243)
# T2 construct: purchased DiscoverX (KINOMEscan)
# Description: as §1
# [3] = molecular target: T3, ANKK1 (Homo sapiens, UniProt Q8NFD2)
# T3 construct: purchased DiscoverX (KINOMEscan)
# Description: as §1
# [4] = molecular target: T4, BMX (Homo sapiens, UniProt P51813)
# T4 construct: purchased DiscoverX (KINOMEscan)
# Description: as §1
# [5] = molecular target: T5, CAMK2A (Homo sapiens, UniProt Q9UQM7)
# T5 construct: purchased DiscoverX (KINOMEscan)
# Description: as §1
# [6] = molecular target: T6, CDK3 (Homo sapiens, UniProt Q00526)
# T6 construct: purchased DiscoverX (KINOMEscan)
# Description: as §1
# [7] = molecular target: T7, CDK4-cyclinD1 (Homo sapiens, UniProt P11802)
# T7 construct: purchased DiscoverX (KINOMEscan)
# Description: as §1
# [8] = molecular target: T8, CDKL5 (Homo sapiens, UniProt O76039)
# T8 construct: purchased DiscoverX (KINOMEscan)
# Description: as §1
# [9] = molecular target: T9, CSK (Homo sapiens, UniProt P41240)
# T9 construct: purchased DiscoverX (KINOMEscan)
# Description: as §1
# [10] = molecular target: T10, CSNK1A1 (Homo sapiens, UniProt P48729)
# T10 construct: purchased DiscoverX (KINOMEscan)
# Description: as §1
# [11] = molecular target: T11, CSNK1D (Homo sapiens, UniProt P48730)
# T11 construct: purchased DiscoverX (KINOMEscan)
# Description: as §1
# [12] = molecular target: T12, DAPK2 (Homo sapiens, UniProt Q9UIK4)
# T12 construct: purchased DiscoverX (KINOMEscan)
# Description: as §1
# [13] = molecular target: T13, DLK (Homo sapiens, UniProt Q12852)
# T13 construct: purchased DiscoverX (KINOMEscan)
# Description: as §1
# [14] = molecular target: T14, EPHA4 (Homo sapiens, UniProt P54764)
# T14 construct: purchased DiscoverX (KINOMEscan)
# Description: as §1
# [15] = molecular target: T15, ERK1 (Homo sapiens, UniProt P27361)
# T15 construct: purchased DiscoverX (KINOMEscan)
# Description: as §1
# [16] = molecular target: T16, ERK5 (Homo sapiens, UniProt Q13164)
# T16 construct: purchased DiscoverX (KINOMEscan)
# Description: as §1
# [17] = molecular target: T17, FGFR1 (Homo sapiens, UniProt P11362)
# T17 construct: purchased DiscoverX (KINOMEscan)
# Description: as §1
# [18] = molecular target: T18, FRK (Homo sapiens, UniProt P42685)
# T18 construct: purchased DiscoverX (KINOMEscan)
# Description: as §1
# [19] = molecular target: T19, GRK7 (Homo sapiens, UniProt Q8WTQ7)
# T19 construct: purchased DiscoverX (KINOMEscan)
# Description: as §1
# [20] = molecular target: T20, GSK3A (Homo sapiens, UniProt P49840)
# T20 construct: purchased DiscoverX (KINOMEscan)
# Description: as §1
# [21] = molecular target: T21, JNK3 (Homo sapiens, UniProt P53779)
# T21 construct: purchased DiscoverX (KINOMEscan)
# Description: as §1
# [22] = molecular target: T22, KIT(D816H) (Homo sapiens, UniProt P10721, D816H)
# T22 construct: purchased DiscoverX (KINOMEscan)
# Description: as §1
# [23] = molecular target: T23, KIT(V559D,T670I) (Homo sapiens, UniProt P10721, T670I/V559D)
# T23 construct: purchased DiscoverX (KINOMEscan)
# Description: as §1
# [24] = molecular target: T24, LYN (Homo sapiens, UniProt P07948)
# T24 construct: purchased DiscoverX (KINOMEscan)
# Description: as §1
# [25] = molecular target: T25, MAP3K3 (Homo sapiens, UniProt Q99759)
# T25 construct: purchased DiscoverX (KINOMEscan)
# Description: as §1
# [26] = molecular target: T26, MAP4K5 (Homo sapiens, UniProt Q9Y4K4)
# T26 construct: purchased DiscoverX (KINOMEscan)
# Description: as §1
# [27] = molecular target: T27, MAPKAPK2 (Homo sapiens, UniProt P49137)
# T27 construct: purchased DiscoverX (KINOMEscan)
# Description: as §1
# [28] = molecular target: T28, MAPKAPK5 (Homo sapiens, UniProt Q8IW41)
# T28 construct: purchased DiscoverX (KINOMEscan)
# Description: as §1
# [29] = molecular target: T29, MEK4 (Homo sapiens, UniProt P45985)
# T29 construct: purchased DiscoverX (KINOMEscan)
# Description: as §1
# [30] = molecular target: T30, MST2 (Homo sapiens, UniProt Q13188)
# T30 construct: purchased DiscoverX (KINOMEscan)
# Description: as §1
# [31] = molecular target: T31, MUSK (Homo sapiens, UniProt O15146)
# T31 construct: purchased DiscoverX (KINOMEscan)
# Description: as §1
# [32] = molecular target: T32, NLK (Homo sapiens, UniProt Q9UBE8)
# T32 construct: purchased DiscoverX (KINOMEscan)
# Description: as §1
# [33] = molecular target: T33, STK16 (Homo sapiens, UniProt O75716)
# T33 construct: purchased DiscoverX (KINOMEscan)
# Description: as §1
# [34] = molecular target: T34, STK39 (Homo sapiens, UniProt Q9UEW8)
# T34 construct: purchased DiscoverX (KINOMEscan)
# Description: as §1
# [35] = molecular target: T35, TGFBR1 (Homo sapiens, UniProt P36897)
# T35 construct: purchased DiscoverX (KINOMEscan)
# Description: as §1
# [36] = molecular target: T36, TRKA (Homo sapiens, UniProt P04629)
# T36 construct: purchased DiscoverX (KINOMEscan)
# Description: as §1
# [37] = molecular target: T37, TTK (Homo sapiens, UniProt P33981)
# T37 construct: purchased DiscoverX (KINOMEscan)
# Description: as §1
# [38] = molecular target: T38, TYRO3 (Homo sapiens, UniProt Q06418)
# T38 construct: purchased DiscoverX (KINOMEscan)
# Description: as §1
# T33 sequence (O75716 whole entry): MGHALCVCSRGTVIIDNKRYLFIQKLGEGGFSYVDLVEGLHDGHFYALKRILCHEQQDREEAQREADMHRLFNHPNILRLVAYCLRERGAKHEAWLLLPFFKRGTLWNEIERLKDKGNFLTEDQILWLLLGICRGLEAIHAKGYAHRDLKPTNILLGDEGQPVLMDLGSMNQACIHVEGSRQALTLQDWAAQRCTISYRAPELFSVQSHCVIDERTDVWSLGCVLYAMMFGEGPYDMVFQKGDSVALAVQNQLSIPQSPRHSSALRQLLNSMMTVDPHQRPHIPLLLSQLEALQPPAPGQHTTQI
# T2 sequence (Q9Y243 whole entry): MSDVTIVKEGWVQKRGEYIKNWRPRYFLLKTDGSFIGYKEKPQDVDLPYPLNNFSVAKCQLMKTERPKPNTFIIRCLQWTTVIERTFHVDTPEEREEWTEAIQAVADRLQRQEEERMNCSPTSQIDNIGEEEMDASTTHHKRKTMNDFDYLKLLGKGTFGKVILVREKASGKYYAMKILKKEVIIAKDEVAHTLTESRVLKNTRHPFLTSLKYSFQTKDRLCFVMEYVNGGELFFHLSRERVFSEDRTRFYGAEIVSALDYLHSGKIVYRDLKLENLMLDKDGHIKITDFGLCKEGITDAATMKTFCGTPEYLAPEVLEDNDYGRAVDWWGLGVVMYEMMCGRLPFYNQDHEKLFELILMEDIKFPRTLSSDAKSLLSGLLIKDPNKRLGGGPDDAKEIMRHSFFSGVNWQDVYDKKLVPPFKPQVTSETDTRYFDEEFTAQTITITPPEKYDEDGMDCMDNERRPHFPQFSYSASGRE
# T37 sequence (P33981 whole entry): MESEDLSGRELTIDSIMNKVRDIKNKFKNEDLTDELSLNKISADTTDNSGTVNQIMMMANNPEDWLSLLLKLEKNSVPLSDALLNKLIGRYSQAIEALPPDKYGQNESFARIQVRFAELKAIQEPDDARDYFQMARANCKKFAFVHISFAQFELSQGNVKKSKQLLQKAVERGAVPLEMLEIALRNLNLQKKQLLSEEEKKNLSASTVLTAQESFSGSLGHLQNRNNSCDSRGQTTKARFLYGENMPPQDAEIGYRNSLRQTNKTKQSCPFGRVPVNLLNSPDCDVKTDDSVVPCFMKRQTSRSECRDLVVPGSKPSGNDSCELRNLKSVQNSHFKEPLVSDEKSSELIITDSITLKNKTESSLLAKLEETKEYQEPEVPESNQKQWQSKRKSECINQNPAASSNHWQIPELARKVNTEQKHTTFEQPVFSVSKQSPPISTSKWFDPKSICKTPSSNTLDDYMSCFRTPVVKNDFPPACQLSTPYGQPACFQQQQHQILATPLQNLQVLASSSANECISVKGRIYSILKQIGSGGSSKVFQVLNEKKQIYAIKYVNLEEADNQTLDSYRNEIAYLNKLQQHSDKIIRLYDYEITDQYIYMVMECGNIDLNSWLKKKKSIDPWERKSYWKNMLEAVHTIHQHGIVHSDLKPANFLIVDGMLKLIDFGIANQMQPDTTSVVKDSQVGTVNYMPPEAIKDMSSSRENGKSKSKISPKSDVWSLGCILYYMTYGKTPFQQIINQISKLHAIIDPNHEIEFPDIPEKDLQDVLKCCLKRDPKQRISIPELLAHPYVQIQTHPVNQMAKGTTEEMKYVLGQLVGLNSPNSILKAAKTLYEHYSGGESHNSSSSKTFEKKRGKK
# T38 sequence (Q06418 41-890): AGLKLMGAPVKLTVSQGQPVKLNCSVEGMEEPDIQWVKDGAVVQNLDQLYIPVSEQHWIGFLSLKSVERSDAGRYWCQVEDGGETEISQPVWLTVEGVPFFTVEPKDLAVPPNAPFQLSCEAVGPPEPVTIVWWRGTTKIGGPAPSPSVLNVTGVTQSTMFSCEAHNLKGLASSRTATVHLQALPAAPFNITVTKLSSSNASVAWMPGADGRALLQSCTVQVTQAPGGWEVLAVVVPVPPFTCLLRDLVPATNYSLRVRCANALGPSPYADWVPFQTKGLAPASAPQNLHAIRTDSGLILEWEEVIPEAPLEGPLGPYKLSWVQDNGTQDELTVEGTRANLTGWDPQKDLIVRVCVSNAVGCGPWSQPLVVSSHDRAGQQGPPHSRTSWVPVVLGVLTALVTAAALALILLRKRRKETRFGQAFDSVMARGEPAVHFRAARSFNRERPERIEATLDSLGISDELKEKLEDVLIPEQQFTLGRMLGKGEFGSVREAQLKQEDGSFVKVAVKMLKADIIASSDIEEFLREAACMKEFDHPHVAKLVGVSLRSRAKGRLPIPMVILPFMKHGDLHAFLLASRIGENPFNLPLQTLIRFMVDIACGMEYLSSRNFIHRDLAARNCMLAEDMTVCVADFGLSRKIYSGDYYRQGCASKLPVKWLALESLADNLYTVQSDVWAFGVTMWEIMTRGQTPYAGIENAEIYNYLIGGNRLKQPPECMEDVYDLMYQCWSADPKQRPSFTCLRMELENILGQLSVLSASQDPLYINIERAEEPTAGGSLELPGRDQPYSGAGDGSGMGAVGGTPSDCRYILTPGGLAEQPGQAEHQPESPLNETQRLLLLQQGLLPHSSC
# T17 sequence (P11362 22-822): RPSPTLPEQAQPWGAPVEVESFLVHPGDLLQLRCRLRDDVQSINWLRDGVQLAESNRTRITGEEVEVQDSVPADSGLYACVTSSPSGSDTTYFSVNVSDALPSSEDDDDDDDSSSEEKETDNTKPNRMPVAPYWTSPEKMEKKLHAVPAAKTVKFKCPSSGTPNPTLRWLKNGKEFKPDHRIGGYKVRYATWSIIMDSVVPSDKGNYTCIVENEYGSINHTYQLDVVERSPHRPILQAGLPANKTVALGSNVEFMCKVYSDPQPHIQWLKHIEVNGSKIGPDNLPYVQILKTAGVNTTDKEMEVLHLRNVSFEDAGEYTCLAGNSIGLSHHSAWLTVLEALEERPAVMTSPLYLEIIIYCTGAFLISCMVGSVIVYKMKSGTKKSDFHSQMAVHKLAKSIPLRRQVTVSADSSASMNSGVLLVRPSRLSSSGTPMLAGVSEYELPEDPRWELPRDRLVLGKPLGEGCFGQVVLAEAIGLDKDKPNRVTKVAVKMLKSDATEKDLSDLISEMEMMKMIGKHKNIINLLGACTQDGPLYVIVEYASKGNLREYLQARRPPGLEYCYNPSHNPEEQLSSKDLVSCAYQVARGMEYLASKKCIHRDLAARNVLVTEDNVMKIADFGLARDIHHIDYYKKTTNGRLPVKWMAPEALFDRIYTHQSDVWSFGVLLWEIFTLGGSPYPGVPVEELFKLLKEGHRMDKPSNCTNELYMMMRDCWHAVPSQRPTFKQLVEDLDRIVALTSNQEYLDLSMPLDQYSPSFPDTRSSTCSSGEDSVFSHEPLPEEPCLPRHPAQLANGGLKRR
# T32 sequence (Q9UBE8 whole entry): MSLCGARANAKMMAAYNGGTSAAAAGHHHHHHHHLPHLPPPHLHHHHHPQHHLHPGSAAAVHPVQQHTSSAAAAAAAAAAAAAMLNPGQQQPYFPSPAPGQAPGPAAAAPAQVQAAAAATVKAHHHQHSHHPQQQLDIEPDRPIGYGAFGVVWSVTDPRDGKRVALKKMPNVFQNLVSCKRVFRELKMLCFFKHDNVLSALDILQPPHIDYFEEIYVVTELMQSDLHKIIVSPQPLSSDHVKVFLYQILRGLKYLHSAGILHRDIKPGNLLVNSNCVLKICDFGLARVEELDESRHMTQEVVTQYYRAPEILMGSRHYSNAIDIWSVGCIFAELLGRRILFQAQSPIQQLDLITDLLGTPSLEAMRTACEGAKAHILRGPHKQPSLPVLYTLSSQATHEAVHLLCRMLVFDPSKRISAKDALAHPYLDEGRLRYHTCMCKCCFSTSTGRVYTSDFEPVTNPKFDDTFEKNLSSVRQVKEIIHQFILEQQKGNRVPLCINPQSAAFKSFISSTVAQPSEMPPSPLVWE
# T11 sequence (P48730 whole entry): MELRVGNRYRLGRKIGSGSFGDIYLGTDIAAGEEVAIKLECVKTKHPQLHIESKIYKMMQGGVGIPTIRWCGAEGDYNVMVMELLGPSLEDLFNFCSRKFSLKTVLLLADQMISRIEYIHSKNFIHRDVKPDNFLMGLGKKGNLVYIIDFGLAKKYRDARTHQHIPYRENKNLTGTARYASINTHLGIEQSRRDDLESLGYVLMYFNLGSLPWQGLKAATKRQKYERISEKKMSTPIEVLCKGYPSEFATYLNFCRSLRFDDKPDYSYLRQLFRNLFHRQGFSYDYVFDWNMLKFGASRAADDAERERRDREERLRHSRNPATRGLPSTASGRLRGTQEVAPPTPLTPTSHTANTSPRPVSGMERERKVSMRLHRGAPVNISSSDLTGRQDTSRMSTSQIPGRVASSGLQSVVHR
# T28 sequence (Q8IW41 whole entry): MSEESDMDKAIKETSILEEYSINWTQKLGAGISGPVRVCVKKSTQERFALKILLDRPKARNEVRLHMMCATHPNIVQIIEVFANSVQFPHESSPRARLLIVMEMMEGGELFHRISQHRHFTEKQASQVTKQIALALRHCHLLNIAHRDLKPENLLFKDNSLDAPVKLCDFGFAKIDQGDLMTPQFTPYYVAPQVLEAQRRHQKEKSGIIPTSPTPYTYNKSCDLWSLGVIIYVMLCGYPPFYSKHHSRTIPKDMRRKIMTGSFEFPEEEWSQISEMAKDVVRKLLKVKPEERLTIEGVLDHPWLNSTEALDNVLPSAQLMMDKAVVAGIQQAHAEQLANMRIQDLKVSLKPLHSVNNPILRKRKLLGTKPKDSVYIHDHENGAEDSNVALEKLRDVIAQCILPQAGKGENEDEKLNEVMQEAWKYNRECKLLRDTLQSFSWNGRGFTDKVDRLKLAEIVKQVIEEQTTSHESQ
# T6 sequence (Q00526 whole entry): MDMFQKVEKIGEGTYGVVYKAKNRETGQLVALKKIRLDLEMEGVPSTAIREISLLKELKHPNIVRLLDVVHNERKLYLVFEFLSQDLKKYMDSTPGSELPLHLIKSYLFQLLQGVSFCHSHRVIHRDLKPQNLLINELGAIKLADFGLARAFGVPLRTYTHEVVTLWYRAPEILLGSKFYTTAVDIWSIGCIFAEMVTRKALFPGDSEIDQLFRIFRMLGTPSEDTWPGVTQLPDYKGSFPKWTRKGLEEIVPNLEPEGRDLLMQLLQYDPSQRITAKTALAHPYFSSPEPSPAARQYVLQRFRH
structure (smiles),measurement,setting,value
COc1cc(/C=C2\N=C(N)NC2=O)ccc1O [Polyandrocarpamine A],Score,[1],100
same,Score,[2],100
same,Score,[3],100
same,Score,[4],100
same,Score,[5],98
same,Score,[6],100
same,Score,[7],96
same,Score,[8],100
same,Score,[9],100
same,Score,[10],100
same,Score,[11],70
same,Score,[12],58
same,Score,[13],100
same,Score,[14],83
same,Score,[15],100
same,Score,[16],100
same,Score,[17],100
same,Score,[18],100
same,Score,[19],100
same,Score,[20],100
same,Score,[21],93
same,Score,[22],100
same,Score,[23],85
same,Score,[24],89
same,Score,[25],100
same,Score,[26],100
same,Score,[27],100
same,Score,[28],100
same,Score,[29],100
same,Score,[30],100
same,Score,[31],56
same,Score,[32],100
same,Score,[33],100
same,Score,[34],100
same,Score,[35],100
same,Score,[36],95
same,Score,[37],100
same,Score,[38],100
